The values that follow come from patent US12086788B2, “Substituted pyrazines as inhibitors of BTK, and mutants thereof” (Newave Pharmaceutical Inc., priority 2018, dated 2024).

Entries after “also recorded” stand apart in the source; their conditions may differ. Some results are limits rather than exact numbers.

Data set [1] deals with T1, WT BTK (Homo sapiens, UniProt Q06187). The experiment in a line: In vitro dialysis assay (irreversibility assay). The data set is classed as biochemical. The settings on record: from recovery after 24 h dialysis. How it is done:
The compound-enzyme complex was dialyzed against the same buffer supplemented with 40 mM ATP for 24 hr. Cumulative dialysis factor>160,000×. After dialysis, the BTK activity was measured in the presence […] and 1 mM substrate peptide and compared to that in non-dialyzed samples. Assay buffer: 100 mM HEPES, pH7.5; 0.1% BSA, 0.01% Triton-X 100; 5 mM MgCl2; 1 mM DTT.

The target of data set [2] is T1, WT BTK. The data set can be described thus: Caliper-based biochemical enzymatic assay (IC50), WT BTK. As to conditions: 0.5 nM enzyme, ATP 16 μM, room temperature 3 h; read-out: WT BTK IV50 (nM) (irreversible inhibition). How it is done: (§1) The reaction was then terminated with EDTA, final concentration 20 mM and the phosphorylated reaction product was quantified on a Caliper Desktop Profiler (Caliper LabChip 3000).

The target of data set [3] is T2, C481S BTK (Homo sapiens, UniProt Q06187, C481S). The experiment in a line: Caliper-based biochemical enzymatic assay (IC50), C481S BTK. As to conditions: for IC50: 0.5 nM enzyme, ATP 16 μM, room temperature 3 h, read-out: C481S BTK IC50 (nM) (reversible inhibition). How it is done:
as §1

Data set [4] deals with T2, C481S BTK. The data set can be described thus: Reversibility of binding to the C481S BTK enzyme. The data set is classed as biochemical. The settings on record: Cysteine residue not available for covalent binding.
In data set [5] the test system is basophil activation, B cell receptor activation, and constitutive p-BTK activity in whole blood lysates. The settings on record: read-out: IC50s for basophil activation, B cell receptor activation, and constitutive p-BTK activity; cited from earlier work.
A further data set concerns rats. As to conditions: treatment for longer than 7 days; cited from earlier work.
The test system of the next data set is mice. The settings on record: even at higher doses; cited from earlier work.
The subject of the next data set is dogs. The settings on record: even at higher doses; cited from earlier work.
The conditions of data set [6]: Phase I clinical trials, formulations containing GDC-0853; cited from earlier work.

T1 sequence (Q06187 whole entry): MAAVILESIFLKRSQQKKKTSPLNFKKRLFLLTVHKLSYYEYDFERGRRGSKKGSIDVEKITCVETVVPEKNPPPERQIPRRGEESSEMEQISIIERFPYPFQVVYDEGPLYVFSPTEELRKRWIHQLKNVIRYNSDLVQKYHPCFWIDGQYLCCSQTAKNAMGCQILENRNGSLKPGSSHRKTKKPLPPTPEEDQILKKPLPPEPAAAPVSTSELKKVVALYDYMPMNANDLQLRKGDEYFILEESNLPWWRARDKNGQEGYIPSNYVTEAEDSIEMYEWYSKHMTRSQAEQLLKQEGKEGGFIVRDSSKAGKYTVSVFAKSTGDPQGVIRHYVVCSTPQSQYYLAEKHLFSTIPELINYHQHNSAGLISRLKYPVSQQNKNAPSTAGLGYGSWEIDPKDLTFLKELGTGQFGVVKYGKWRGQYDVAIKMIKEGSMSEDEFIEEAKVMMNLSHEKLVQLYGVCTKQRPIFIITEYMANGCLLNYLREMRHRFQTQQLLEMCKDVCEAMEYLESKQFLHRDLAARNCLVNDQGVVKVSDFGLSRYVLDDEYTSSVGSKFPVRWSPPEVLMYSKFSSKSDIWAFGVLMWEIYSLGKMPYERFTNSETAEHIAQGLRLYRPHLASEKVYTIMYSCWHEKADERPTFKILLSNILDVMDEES
T2 sequence (Q06187 whole entry C481S): as the sequence (Q06187 whole entry) above, with C481S counted along it

As to `C=CC(=O)Nc1cc(Nc2nc(-c3ccnc(N4CCn5c(cc6c5CC(C)(C)C6)C4=O)c3CO)cn(C)c2=O)ccc1N1CCC(N2CCOCC2)CC1C` (stereo not drawn) [Example 12, N-(5-((6-(2-(7,7-dimethyl-1-oxo-1,3,4,6,7,8-hexahydro-2H-cyclopenta[4,5]pyrrolo[1,2-a]pyrazin-2-yl)-3-(hydroxymethyl)pyridin-4-yl)-4-methyl-3-oxo-3,4-dihydropyrazin-2-yl)amino)-2-(2-methyl-4-morpholinopiperidin-1-yl)phenyl)acrylamide], the “Conclusion (WT BTK)” value on WT BTK [1] is recorded as “irreversible inhibitors; also recorded: Irreversible/covalent inhibition”. The IC50 on WT BTK [2] and on C481S BTK [3] was less than 1 nM throughout.

As to `C=CC(=O)Nc1cc(Nc2nc(-c3ccnc(N4CCn5c(cc6c5CC(C)(C)C6)C4=O)c3C)cn(C)c2=O)ccc1N1CCN(C2COC2)C[C@@H]1C` [Example 11, (S)—N-(5-((6-(2-(7,7-dimethyl-1-oxo-1,3,4,6,7,8-hexahydro-2H-cyclopenta[4,5]pyrrolo[1,2-a]pyrazin-2-yl)-3-methylpyridin-4-yl)-4-methyl-3-oxo-3,4-dihydropyrazin-2-yl)amino)-2-(2-methyl-4-(oxetan-3-yl)piperazin-1-yl)phenyl)acrylamide], the “Conclusion (WT BTK)” value on WT BTK [1] is “irreversible inhibitors; also recorded: Irreversible/covalent inhibition”. The IC50 at WT BTK [2] and at C481S BTK [3] was less than 1 nM throughout.

Regarding `C=CC(=O)Nc1cc(Nc2nc(-c3ccnc(N4CCn5c(cc6c5CC(C)(C)C6)C4=O)c3CO)cn(C)c2=O)ccc1N1CCN(C2COC2)C[C@@H]1C` [Example 3, (S)—N-(5-((6-(2-(7,7-dimethyl-1-oxo-1,3,4,6,7,8-hexahydro-2H-cyclopenta[4,5]pyrrolo[1,2-a]pyrazin-2-yl)-3-(hydroxymethyl)pyridin-4-yl)-4-methyl-3-oxo-3,4-dihydropyrazin-2-yl)amino)-2-(2-methyl-4-(oxetan-3-yl)piperazin-1-yl)phenyl)acrylamide], at WT BTK [1], the “Conclusion (WT BTK)” value was “irreversible inhibitors; also recorded: Irreversible/covalent inhibition”. The IC50 on WT BTK [2] and on C481S BTK [3] was less than 1 nM throughout.

Consider `C=CC(=O)Nc1cc(Nc2nc(-c3ccnc(N4CCn5c(cc6c5CC(C)(C)C6)C4=O)c3CO)cn(C)c2=O)ccc1N1CCN(C)CC1` [Example 2, N-(5-((6-(2-(7,7-dimethyl-1-oxo-1,3,4,6,7,8-hexahydro-2H-cyclopenta[4,5]pyrrolo[1,2-a]pyrazin-2-yl)-3-(hydroxymethyl)pyridin-4-yl)-4-methyl-3-oxo-3,4-dihydropyrazin-2-yl)amino)-2-(4-methylpiperazin-1-yl)phenyl)acrylamide], for which the “Conclusion (WT BTK)” value at WT BTK [1] is listed as “irreversible inhibitors; also recorded: Irreversible/covalent inhibition”. Further, the IC50 on WT BTK [2] was determined as 0.25 nM. On C481S BTK [3], the “fold more potent than ACT-196 in C481S BTK assay” value worked out at 477, the “fold more potent than Ibrutinib in C481S BTK assay” value was 64 and the IC50 came out at 1.7 nM. The “mode of binding to C481S BTK” value at C481S BTK [4] is recorded as “reversibly bind”.

Regarding `C[C@H]1CN(C2COC2)CCN1c1ccc(Nc2cc(-c3ccnc(N4CCn5c(cc6c5CC(C)(C)C6)C4=O)c3CO)cn(C)c2=O)nc1` [GDC-0853], the “Conclusion (WT BTK)” value on WT BTK [1] is listed as “Reversible”. Besides, the IC50 in [5] was 2 to 9 nM. In addition, the values for the pancreatic toxicity entry with rats, in the data set with mice and with dogs were “pancreatic toxicity”, “does not occur” and “does not occur”, respectively. Besides, the tolerability entry in data set [6] is given as “well-tolerated”.
